Data reported in ChEMBL document CHEMBL1135677 (J Med Chem, 2002).

Tests used:
[1] = system: LXFL 529; test: Antiproliferative activity assessed in the LXFL529 human lung carcinoma using the BrdU; assay type: functional, cell-based
[2] = Antiproliferative activity assessed in the RENCA murine renal cell carcinoma using the BrdU; assay type: functional, cell-based, Mus musculus
[3] = system: MCF7; test: Antiproliferative activity assessed in the MCF-7 human mamma carcinoma using the BrdU; assay type: functional, cell-based
[4] = target: T1, Albumin (Homo sapiens, UniProt P02768); test: Second order rate constant after incubation with human serum albumin (HSA) at pH 7.4 in the absence of myristic acid
T1 sequence (P02768 whole entry): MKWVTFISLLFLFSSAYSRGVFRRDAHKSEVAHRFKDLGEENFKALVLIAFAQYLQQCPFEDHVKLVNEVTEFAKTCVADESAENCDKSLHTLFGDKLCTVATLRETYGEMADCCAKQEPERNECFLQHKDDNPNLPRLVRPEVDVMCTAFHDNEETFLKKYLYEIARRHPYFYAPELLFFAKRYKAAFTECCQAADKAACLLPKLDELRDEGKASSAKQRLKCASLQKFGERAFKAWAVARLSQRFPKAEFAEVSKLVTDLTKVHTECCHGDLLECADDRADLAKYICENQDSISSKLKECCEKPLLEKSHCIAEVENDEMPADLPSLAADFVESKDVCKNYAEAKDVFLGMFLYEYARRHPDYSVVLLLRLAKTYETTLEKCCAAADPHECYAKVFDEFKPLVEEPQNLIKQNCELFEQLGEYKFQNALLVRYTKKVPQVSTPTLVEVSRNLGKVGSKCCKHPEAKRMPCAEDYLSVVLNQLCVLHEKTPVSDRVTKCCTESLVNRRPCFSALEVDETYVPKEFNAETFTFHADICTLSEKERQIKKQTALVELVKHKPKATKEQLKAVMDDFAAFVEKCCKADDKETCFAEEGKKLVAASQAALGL

[5] = target: T1, Albumin; test: Second order rate constant after incubation with human serum albumin (HSA) at pH 7.4 in the presence of 5 equiv of myristic acid

Structure (SMILES) | IC50 ([3]; Homo sapiens, MCF7) | k2 [4] | k2 [5] | IC50 ([1]; Homo sapiens, LXFL 529) | also measured
COc1cccc2c1C(=O)c1c(O)c3c(c(O)c1C2=O)C[C@@](O)(/C(CO)=N/NC(=O)CCCCCN1C(=O)C=CC1=O)C[C@]3(C)COC1C[C@H](N)[C@](C)(O)[C@H](C)O1 (stereo in doubt) | 1 µM |  |  | 0.4 µM | IC50 ([2]; Mus musculus): 0.9 µM
COc1cccc2c1C(=O)c1c(O)c3c(c(O)c1C2=O)C[C@@](O)(/C(CO)=N/NC(=O)CCCCCN1C(=O)C=CC1=O)C[C@]3(C)COC1C[C@H](N)[C@](C)(O)[C@H](C)O1.Cl (stereo in doubt; 3) |  | 17.33 M⁻¹ s⁻¹ | 37.5 M⁻¹ s⁻¹ |  | IC50 ([1]; lxfl 529): 0.5 µM; IC50 [2]: 1 µM; IC50 ([3]; mcf7): 1.1 µM
COc1cccc2c1C(=O)c1c(O)c3c(c(O)c1C2=O)C[C@@](O)(/C(CO)=N/NC(=O)CCCCCCCN1C(=O)C=CC1=O)C[C@]3(C)COC1C[C@H](N)[C@](C)(O)[C@H](C)O1.Cl (some centres undefined) |  | 10 M⁻¹ s⁻¹ | 16 M⁻¹ s⁻¹ |  | 

Now from value to compound, other results behind:

IC50 ([3]; Homo sapiens, MCF7) | k2 [4] | k2 [5] | Structure (SMILES) | IC50 ([1]; Homo sapiens, LXFL 529) | also measured
 | 23.83 M⁻¹ s⁻¹ | 17.83 M⁻¹ s⁻¹ | COc1cccc2c1C(=O)c1c(O)c3c(c(O)c1C2=O)C[C@@](O)(/C(CO)=N/NC(=O)CCN1C(=O)C=CC1=O)C[C@]3(C)COC1C[C@H](N)[C@](C)(O)[C@H](C)O1.Cl (some centres undefined) |  | 
 | 25.17 M⁻¹ s⁻¹ | 19 M⁻¹ s⁻¹ | COc1cccc2c1C(=O)c1c(O)c3c(c(O)c1C2=O)C[C@@](O)(/C(CO)=N/NC(=O)CCCN1C(=O)C=CC1=O)C[C@]3(C)COC1C[C@H](N)[C@](C)(O)[C@H](C)O1.Cl (some centres undefined) |  | 
1.1 µM |  |  | COc1cccc2c1C(=O)c1c(O)c3c(c(O)c1C2=O)C[C@@](O)(/C(CO)=N/NC(=O)CCCCCN1C(=O)CCC1=O)C[C@]3(C)COC1C[C@H](N)[C@](C)(O)[C@H](C)O1 (some centres undefined) | 0.5 µM | IC50 ([2]; Mus musculus): 0.7 µM
0.04 µM |  |  | COc1cccc2c1C(=O)c1c(O)c3c(c(O)c1C2=O)C[C@@](O)(C(=O)CO)C[C@@H]3O[C@H]1C[C@H](N)[C@H](O)[C@H](C)O1 [DOXORUBICIN] | 0.04 µM | 
